# From BindingDB's records for doi:10.1110/ps.0229303 (Gsk, 2003)
# Legend:
# Assay in all cases: PDF Inhibition Assay
# Details in all cases: pH 7.6; 25 °C
# Peptide deformylase [1] = molecular target: T1, Peptide deformylase (Haemophilus influenzae (strain ATCC 51907 / DSM 11121 / KW20 / Rd), UniProt P44786)
# T1 sequence (P44786 whole entry): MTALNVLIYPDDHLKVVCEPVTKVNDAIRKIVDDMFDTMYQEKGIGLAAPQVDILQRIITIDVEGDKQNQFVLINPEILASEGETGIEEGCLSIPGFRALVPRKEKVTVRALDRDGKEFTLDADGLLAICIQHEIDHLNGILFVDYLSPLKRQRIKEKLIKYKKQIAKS
# Procedure: (§1) Enzyme assay was carried out in 96-well microtiter plates with a SpectraMax plate reader (Molecular Devices Corp.). PDF activity was measured using a continuous enzyme-linked assay. The reaction was triggered with the addition of PDF enzyme, and absorbance was monitored for 15 min at 340 nm. […] A standard curve with NADH concentrations ranging from 0 to 1 mM was performed. The velocities obtained in mOD340 nm per minute were then converted to micromolar NADH produced per second to calculate Vmax. To determine IC50s, PDF activity was measured in the presence of increasing concentrations of the inhibitor in the presence of substrate concentration corresponding to Km values. All data fitting was carried out with nonlinear least squares regression using the commercial software package Graphit.
# Peptide deformylase [2] = molecular target: T2, Peptide deformylase (Escherichia coli (strain K12), UniProt P0A6K3)
# T2 sequence (P0A6K3 whole entry): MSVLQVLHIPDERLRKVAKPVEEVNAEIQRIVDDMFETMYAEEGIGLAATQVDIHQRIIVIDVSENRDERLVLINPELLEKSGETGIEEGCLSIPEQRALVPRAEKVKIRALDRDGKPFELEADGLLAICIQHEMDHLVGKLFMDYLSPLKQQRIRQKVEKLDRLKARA
# Procedure: as §1
# Peptide deformylase [3] = molecular target: T3, Peptide deformylase (Staphylococcus aureus (strain Mu50 / ATCC 700699), UniProt P68825)
# T3 sequence (P68825 whole entry): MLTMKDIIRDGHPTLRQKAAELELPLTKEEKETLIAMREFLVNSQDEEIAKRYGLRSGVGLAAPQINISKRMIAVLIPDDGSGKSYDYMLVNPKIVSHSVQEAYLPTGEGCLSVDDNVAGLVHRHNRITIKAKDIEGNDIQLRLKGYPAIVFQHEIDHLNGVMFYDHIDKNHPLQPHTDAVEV
# Procedure: as §1
# Peptide deformylase [4] = molecular target: T4, Peptide deformylase (Streptococcus pneumoniae (strain ATCC BAA-255 / R6), UniProt Q8DP79)
# T4 sequence (Q8DP79 whole entry): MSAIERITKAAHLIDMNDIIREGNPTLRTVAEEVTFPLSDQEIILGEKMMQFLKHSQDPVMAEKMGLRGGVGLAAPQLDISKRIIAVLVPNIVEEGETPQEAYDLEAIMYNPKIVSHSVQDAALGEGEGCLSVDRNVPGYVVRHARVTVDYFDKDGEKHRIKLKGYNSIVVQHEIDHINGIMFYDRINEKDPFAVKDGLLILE
# Procedure: as §1
IC50 (Peptide deformylase [1]),SMILES,IC50 (Peptide deformylase [2]),IC50 (Peptide deformylase [3]),IC50 (Peptide deformylase [4])
320 nM,O=CN(O)CCOc1cccc(C(=O)c2ccccc2)c1 [N-[2-(3-benzoylphenoxy)ethyl]-N-hydroxyformamide],,,
1040 nM,Cc1cccc(CCCN(O)C=O)n1 [N-hydroxy-N-[3-(6-methylpyridin-2-yl)propyl]formamide],,,

SMILES,IC50 (Peptide deformylase [1]),IC50 (Peptide deformylase [2]),IC50 (Peptide deformylase [3]),IC50 (Peptide deformylase [4])
O=CN(O)CCCc1ccccc1 [N-hydroxy-N-(3-phenylpropyl)formamide],150 nM,160 nM,250 nM,400 nM
